According to publication PMC7181131, “N-Pyrazinoyl Substituted Amino Acids as Potential Antimycobacterial Agents—the Synthesis and Biological Evaluation of Enantiomers” (Molecules, 2020):
Converted amounts (≈) assume the structure as drawn. Where two headings read alike, the source gives them in different places.

Key:
[1] = tested on: Mycobacterium aurum DSM 43999 (ATCC 23366); test: Microplate Alamar Blue Assay (MABA) microdilution, M. aurum; format: cell-based; conditions: Mycolicibacterium aurum
[2] = tested on: Candida albicans CCM 8320 (ATCC 24433); test: Antifungal microdilution broth method, CA; format: cell-based; conditions: 24 h, read-out: MIC CA
[3] = tested on: M. smegmatis DSM 43465 (ATCC 607); test: Microplate Alamar Blue Assay (MABA) microdilution, M. smegmatis; format: cell-based, Mycobacterium smegmatis; conditions: Mycolicibacterium smegmatis
[4] = tested on: Klebsiella pneumoniae CCM 4415 (ATCC 10031); test: Antibacterial microdilution broth method, KP; conditions: read after 24 h of incubation
[5] = tested on: Candida tropicalis CCM 8264 (ATCC 750); test: Antifungal microdilution broth method, CT; format: cell-based; conditions: 24 h, read-out: MIC CT
[6] = tested on: Candida krusei CCM 8271 (ATCC 6258); test: Antifungal microdilution broth method, CK; format: cell-based; conditions: Pichia kudriavzevii, 24 h, read-out: MIC CK
[7] = tested on: Aspergillus fumigatus ATCC 204305; test: Antifungal microdilution broth method, AF; format: cell-based; conditions: ATCC204305, 48 h, read-out: MIC AF
[8] = tested on: Lichtheimia corymbifera CCM 8077; test: Antifungal microdilution broth method, LC; format: cell-based; conditions: CCM8077, 48 h, read-out: MIC LC
[9] = tested on: Trichophyton interdigitale CCM 8377 (ATCC 9533); test: Antifungal microdilution broth method, TI; format: cell-based; conditions: 48 h, read-out: MIC TI
[10] = tested on: Staphylococcus epidermidis CCM 4418 (ATCC 12228); test: Antibacterial microdilution broth method, SE; format: cell-based; conditions: 24 h, read-out: MIC SE
[11] = tested on: Aspergillus flavus CCM 8363; test: Antifungal microdilution broth method, AFla; format: cell-based; conditions: CCM8363, read after 48 h (filamentous fungi), read-out: MIC AFla
Experimental: 6. In vitro antifungal activity screening
Antifungal activity evaluation was performed using a microdilution broth method according to EUCAST instructions (The European Committee on Antimicrobial Susceptibility Testing) with slight modifications. Eight fungal strains (four yeast and four mould strains) were used for antifungal […]
and Trichophyton interdigitale CCM 8377 (ATCC 9533). Tested strains were purchased from the Czech Collection of Microorganisms (CCM, Brno, Czech Republic) or from the American Type Collection Cultures (ATCC, Manassas, VA, USA). Tested compounds were dissolved in DMSO and diluted in a twofold manner with RPMI 1640 medium, with glutamine and 2% glucose, buffered to pH 7.0 with MOPS (3-morpholinopropane-1-sulfonic acid). The final concentration of DMSO in the testing […]
Static incubation was performed in the dark and in humid atmosphere, at 35±2 °C, for 24 and 48 h (72 and 120 h for Trichophyton interdigitale respectively). Positive controls consisted of test microbe solely, while negative controls consisted of cultivation medium and DMSO. Visual inspection and metabolic activity indicator, Alamar Blue (ThermoFisher Scientific), were used for MIC endpoint evaluation. The internal quality standards, amphotericin B (Sigma-Aldrich) and voriconazole (Toronto research Chemicals, CA) were involved in assays (for MIC of standards see Table S5). All experiments were conducted in duplicates.
For the results to be valid, the difference in MIC for one compound determined from two parallel measurements must not be greater than one step on the dilution scale.

[12] = tested on: Mtb H37Ra ITM-M006710 (ATCC 9431); test: Microplate Alamar Blue Assay (MABA) microdilution, Mtb H37Ra; format: cell-based, Mycobacterium tuberculosis; conditions: Mycobacterium tuberculosis
[13] = tested on: Candida parapsilosis CCM 8260 (ATCC 22019); test: Antifungal microdilution broth method, CP; format: cell-based; conditions: Lodderomyces parapsilosis, 24 h, read-out: MIC CP
[14] = pH 6, read-out: MIC M. aurum µg/mL
[15] = pH 6, read-out: MIC M. smegmatis µg/mL
[16] = pH 6.6, read-out: MIC M. smegmatis
[17] = pH 6.6, read-out: MIC Mtb H37Ra
[18] = pH 6, calculated from µg/mL, read-out: MIC Mtb H37Ra

Row | SMILES | MIC [1, 14] | MIC ([1]; pH 6.6, read-out: MIC M. aurum) | MIC [2] | MIC [3, 15] | MIC [3, 16] | MIC KP [4] | MIC [5] | MIC [6] | MIC [7] | MIC [8] | MIC [9] | MIC [10] | MIC [11] | MIC ([12]; pH 6) | MIC ([12]; pH 6, read-out: MIC Mtb H37Ra) | MIC [12, 17] | MIC [12, 18] | MIC [13]
1 | COC(=O)[C@H](NC(=O)c1cnccn1)[C@H](C)OC(C)(C)C [PC-D-OtBu-Thr-Me, methyl O-(tert-butyl)-N-(pyrazine-2-carbonyl)-D-threoninate] | ≥ 500 µg/mL | ≥ 500 µg/mL | > 500 µM | ≥ 500 µg/mL | ≥ 500 µg/mL | > 500 µM | > 500 µM | > 500 µM | > 500 µM | > 500 µM | > 500 µM | > 500 µM | > 500 µM | 62.5 mg/L | 62.5 mg/L | ≥ 500 mg/L | 212 µM | > 500 µM
2 | COC(=O)[C@@H](CO)NC(=O)c1cnccn1 [PC-D-Ser-Me, methyl (pyrazine-2-carbonyl)-D-serinate] | 250 µg/mL (≈ 1110 µM) | ≥ 500 µg/mL | > 500 µM | ≥ 500 µg/mL | ≥ 500 µg/mL | > 500 µM | > 500 µM | > 500 µM | > 500 µM | > 500 µM | > 500 µM | > 500 µM | > 500 µM | 250 mg/L | 250 mg/L | ≥ 500 mg/L | 1110 µM | > 500 µM
3 | COC(=O)[C@H](NC(=O)c1cnccn1)[C@H](C)O [PC-D-Thr-Me, methyl (pyrazine-2-carbonyl)-D-threoninate] | ≥ 500 µg/mL | ≥ 500 µg/mL | > 500 µM | ≥ 500 µg/mL | ≥ 500 µg/mL | > 500 µM | > 500 µM | > 500 µM | > 500 µM | > 500 µM | > 500 µM | > 500 µM | > 500 µM | ≥ 500 mg/L | ≥ 500 mg/L | ≥ 500 mg/L | ≥ 2090 µM | > 500 µM
4 | CCOC(=O)[C@@H](Cc1c[nH]c2ccccc12)NC(=O)c1cnccn1 [PC-D-Trp-Et, ethyl (pyrazine-2-carbonyl)-D-tryptophanate] | 62.5 µg/mL (≈ 185 µM) | 250 µg/mL (≈ 739 µM) | > 500 µM | 250 µg/mL (≈ 739 µM) | 250 µg/mL (≈ 739 µM) | > 500 µM | > 500 µM | > 500 µM | > 500 µM | > 500 µM | > 500 µM | > 500 µM | > 500 µM | 62.5 mg/L | 62.5 mg/L | 125 mg/L | 185 µM | > 500 µM
5 | COC(=O)[C@@H](Cc1ccc(O)cc1)NC(=O)c1cnccn1 [PC-D-Tyr-Me, methyl (pyrazine-2-carbonyl)-D-tyrosinate] | ≥ 250 µg/mL | ≥ 500 µg/mL | > 500 µM | ≥ 500 µg/mL | ≥ 500 µg/mL | > 500 µM | > 500 µM | > 500 µM | > 500 µM | > 500 µM | > 500 µM | > 500 µM | > 500 µM | 125 mg/L | 125 mg/L | ≥ 500 mg/L | 415 µM | > 500 µM
6 | COC(=O)[C@H](NC(=O)c1cnccn1)C(C)C [PC-D-Val-Me, methyl (pyrazine-2-carbonyl)-D-valinate] | ≥ 125 µg/mL | ≥ 500 µg/mL | > 500 µM | ≥ 125 µg/mL | ≥ 500 µg/mL | > 500 µM | > 500 µM | > 500 µM | > 500 µM | > 500 µM | > 500 µM | > 500 µM | > 500 µM | ≥ 125 mg/L | ≥ 125 mg/L | ≥ 500 mg/L | ≥ 527 µM | > 500 µM
7 | CCOC(=O)CNC(=O)c1cnccn1 [PC-Gly-Et, ethyl (pyrazine-2-carbonyl)glycinate] | ≥ 125 µg/mL | ≥ 500 µg/mL | > 500 µM | ≥ 125 µg/mL | 250 µg/mL (≈ 1200 µM) | > 500 µM | > 500 µM | > 500 µM | > 500 µM | > 500 µM | > 500 µM | > 500 µM | > 500 µM | ≥ 125 mg/L | ≥ 125 mg/L | ≥ 500 mg/L | ≥ 598 µM | > 500 µM
8 | CCOC(=O)C[C@H](NC(=O)c1cnccn1)C(=O)OCC [PC-L-Asp-diEt, diethyl (pyrazine-2-carbonyl)-L-aspartate] | ≥ 125 µg/mL | ≥ 500 µg/mL | > 500 µM | ≥ 125 µg/mL | ≥ 500 µg/mL | > 500 µM | > 500 µM | > 500 µM | > 500 µM | > 500 µM | > 500 µM | 500 µM (≈ 148 µg/mL) | > 500 µM | ≥ 125 mg/L | ≥ 125 mg/L | ≥ 500 mg/L | ≥ 423 µM | > 500 µM
9 | CCOC(=O)CC[C@H](NC(=O)c1cnccn1)C(=O)OCC [PC-L-Glu-diEt, diethyl (pyrazine-2-carbonyl)-L-glutamate] | ≥ 500 µg/mL | ≥ 500 µg/mL | > 500 µM | ≥ 500 µg/mL | ≥ 500 µg/mL | > 500 µM | > 500 µM | > 500 µM | > 500 µM | > 500 µM | > 500 µM | > 500 µM | > 500 µM | 31.2 mg/L | 31.2 mg/L | ≥ 500 mg/L | 101 µM | > 500 µM
10 | O=C(N[C@@H](COCc1ccccc1)C(=O)O)c1cnccn1 [PC-L-OBn-Ser, O-benzyl-N-(pyrazine-2-carbonyl)-L-serine] | 62.5 µg/mL (≈ 207 µM) | ≥ 500 µg/mL | > 500 µM | 250 µg/mL (≈ 830 µM) | ≥ 500 µg/mL | > 500 µM | > 500 µM | > 500 µM | > 500 µM | > 500 µM | > 500 µM | > 500 µM | > 500 µM | ≥ 500 mg/L | ≥ 500 mg/L | ≥ 500 mg/L | ≥ 1660 µM | > 500 µM
11 | COC(=O)[C@H](COC(C)(C)C)NC(=O)c1cnccn1 [PC-L-OtBu-Ser-Me, methyl O-(tert-butyl)-N-(pyrazine-2-carbonyl)-L-serinate] | 62.5 µg/mL (≈ 222 µM) | ≥ 500 µg/mL | > 500 µM | 250 µg/mL (≈ 889 µM) | ≥ 500 µg/mL | > 500 µM | > 500 µM | > 500 µM | > 500 µM | > 500 µM | > 500 µM | > 500 µM | > 500 µM | ≥ 500 mg/L | ≥ 500 mg/L | ≥ 500 mg/L | ≥ 1780 µM | > 500 µM
12 | COC(=O)[C@H](CO)NC(=O)c1cnccn1 [PC-L-Ser-Me, methyl (pyrazine-2-carbonyl)-L-serinate] | ≥ 500 µg/mL | ≥ 500 µg/mL | > 500 µM | ≥ 500 µg/mL | ≥ 500 µg/mL | > 500 µM | > 500 µM | > 500 µM | > 500 µM | > 500 µM | > 500 µM | > 500 µM | > 500 µM | ≥ 500 mg/L | ≥ 500 mg/L | ≥ 500 mg/L | ≥ 2220 µM | > 500 µM
